Target: T1, myosin heavy chain and light chain 1 (Rattus norvegicus, UniProt P02563+P16409)
T1 construct: 1 μg of rat cardiac myofibrils treated with HNO donors or control compounds; tissue Pel Freez Biologicals; host or cells: myofibrils from frozen rat ventricles
Assay: Gel shift assay, reducing/non-reducing western blot of cardiac myofibrils
Assay type: biochemical
Conditions: non-reducing; lost with 5 mM DTT
Protocol: FIG. 4. Validation and characterizations of HNO modifications. 1 μg of rat cardiac myofibrils treated with HNO donors or control compounds were separated under reducing or nonreducing conditions and western blots probed for candidate proteins tropomyosin, actin, myosin heavy chain, myosin light chain 1 (n=4). […] Silver stained gel analysis indicated a protein band with […] gel mobility that was lost with DTT.
Gel shift assay. 10 μg of rat myofibrils/treatment were diluted to 0.5 μg/μl in HEN including 0.1% (w/v) SDS and exposed to a treatment for 20 min at 37° C. Samples were diluted to 0.1 ug/ul in 1×LSD sample buffer, treated with 0, 5 or 100 mM DTT and separated by SDS PAGE. Proteins were silver stained or transferred to nitrocellulose and immunoblotted with primary antibodies for tropomyosin sarcomeric (CH1, Sigma-Aldrich Co., St. Louis, Mo., USA), actin (AC-40, Sigma-Aldrich Co., St. Louis, Mo., USA), myosin light chain 1 (MLM527, Abcam, Cambridge, Mass., USA) or myosin heavy chain (3-48, Abcam, Cambridge, Mass., USA). For some silver stained gel bands of interest in-gel digestion was done following the protocol outlined in Shevchenko et al.. Gel slices of interest were excised from the gels cut into 1 mm^3 pieces. Silver stained gel pieces were destained in 1:1(v/v) 30 mM Potassium ferricyanide and 100 mM Sodium thiosulfate and wash three times with ddH2O. […]

T1 sequence (P02563 whole entry): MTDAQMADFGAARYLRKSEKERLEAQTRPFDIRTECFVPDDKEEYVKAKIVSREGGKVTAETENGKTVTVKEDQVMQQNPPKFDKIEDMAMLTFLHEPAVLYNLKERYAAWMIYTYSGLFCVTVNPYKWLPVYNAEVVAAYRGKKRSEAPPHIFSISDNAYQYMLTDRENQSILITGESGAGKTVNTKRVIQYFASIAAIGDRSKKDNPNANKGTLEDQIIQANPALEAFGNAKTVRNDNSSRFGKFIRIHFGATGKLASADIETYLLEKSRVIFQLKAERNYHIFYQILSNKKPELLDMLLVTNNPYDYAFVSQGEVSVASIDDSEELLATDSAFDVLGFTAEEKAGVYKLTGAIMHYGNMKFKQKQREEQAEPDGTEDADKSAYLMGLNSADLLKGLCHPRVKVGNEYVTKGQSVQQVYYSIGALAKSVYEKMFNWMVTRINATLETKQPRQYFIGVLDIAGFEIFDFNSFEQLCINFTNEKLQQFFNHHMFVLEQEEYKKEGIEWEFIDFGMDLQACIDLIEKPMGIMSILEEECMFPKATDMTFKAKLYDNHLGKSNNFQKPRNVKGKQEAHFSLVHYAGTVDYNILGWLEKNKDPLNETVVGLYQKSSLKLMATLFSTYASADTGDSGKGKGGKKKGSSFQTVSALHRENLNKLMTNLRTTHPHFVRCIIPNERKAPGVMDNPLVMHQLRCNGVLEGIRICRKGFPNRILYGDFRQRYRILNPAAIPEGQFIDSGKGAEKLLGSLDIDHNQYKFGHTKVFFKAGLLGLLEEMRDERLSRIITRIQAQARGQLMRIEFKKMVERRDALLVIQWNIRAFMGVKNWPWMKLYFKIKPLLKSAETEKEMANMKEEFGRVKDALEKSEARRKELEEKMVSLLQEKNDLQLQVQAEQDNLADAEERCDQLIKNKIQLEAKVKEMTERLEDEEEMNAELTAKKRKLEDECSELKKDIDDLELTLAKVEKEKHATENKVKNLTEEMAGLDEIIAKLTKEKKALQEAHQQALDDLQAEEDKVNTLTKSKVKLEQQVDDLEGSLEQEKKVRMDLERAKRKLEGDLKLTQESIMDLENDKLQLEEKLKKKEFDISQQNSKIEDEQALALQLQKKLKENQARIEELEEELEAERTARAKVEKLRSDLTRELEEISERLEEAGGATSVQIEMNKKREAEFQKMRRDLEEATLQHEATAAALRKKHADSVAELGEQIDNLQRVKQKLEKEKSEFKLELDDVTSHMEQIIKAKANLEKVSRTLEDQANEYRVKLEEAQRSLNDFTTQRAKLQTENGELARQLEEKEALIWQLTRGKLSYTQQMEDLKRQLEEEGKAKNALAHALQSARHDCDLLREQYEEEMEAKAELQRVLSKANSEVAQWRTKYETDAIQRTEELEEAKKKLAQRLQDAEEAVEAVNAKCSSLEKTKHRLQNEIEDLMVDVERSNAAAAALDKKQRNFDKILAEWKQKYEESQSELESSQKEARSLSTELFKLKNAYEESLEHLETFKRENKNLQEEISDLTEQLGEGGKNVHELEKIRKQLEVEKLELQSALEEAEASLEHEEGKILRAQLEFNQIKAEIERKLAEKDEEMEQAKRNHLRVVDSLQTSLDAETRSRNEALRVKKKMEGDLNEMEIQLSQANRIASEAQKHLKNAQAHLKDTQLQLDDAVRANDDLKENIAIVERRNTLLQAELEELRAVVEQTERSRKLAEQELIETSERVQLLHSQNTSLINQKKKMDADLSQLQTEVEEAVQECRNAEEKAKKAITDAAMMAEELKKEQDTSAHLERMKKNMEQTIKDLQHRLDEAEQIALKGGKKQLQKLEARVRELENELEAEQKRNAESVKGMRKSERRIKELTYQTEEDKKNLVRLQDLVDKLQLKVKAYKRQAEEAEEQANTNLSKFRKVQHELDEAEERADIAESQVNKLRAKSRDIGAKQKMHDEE
T1 sequence (P16409 2-200 limits assumed): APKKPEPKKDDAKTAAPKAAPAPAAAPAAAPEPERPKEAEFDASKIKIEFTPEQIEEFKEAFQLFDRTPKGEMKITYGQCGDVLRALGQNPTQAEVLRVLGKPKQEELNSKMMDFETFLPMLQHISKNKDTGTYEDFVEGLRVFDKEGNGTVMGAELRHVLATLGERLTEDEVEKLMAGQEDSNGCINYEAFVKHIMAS
T1 sequence (P08733 2-166 partner limits assumed): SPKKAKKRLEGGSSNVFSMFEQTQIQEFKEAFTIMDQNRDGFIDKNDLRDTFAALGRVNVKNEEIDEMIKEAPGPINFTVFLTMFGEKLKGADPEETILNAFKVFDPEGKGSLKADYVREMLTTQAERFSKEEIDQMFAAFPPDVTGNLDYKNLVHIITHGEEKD

Structure (SMILES) | MLC1 homodimer population [kDa]
[Na+].[Na+].[O-][N+]([O-])=NO [AS, Angeli's Salt] | ~50
CC(=O)OC1(N=O)CCCCC1 [NCA, 1-nitrosocyclohexylacetate] | ~50

— US20120231482A1, “METHOD, KIT OR DIAGNOSTIC FOR THE DETECTION OF REAGENTS WHICH INDUCE ALTERED CONTRACTILITY” (THE JOHNS HOPKINS UNIVERSITY, priority 2009, published 2012)
